# Assay results from patent publication US9682957B2 (Theravance Respiratory Company, LLC, priority 2009, dated 2017).
# Structures can show the parent of a compound that is named as a salt.
# System: MCh-induced bronchoconstriction
# Assay: Einthoven assay: bronchoprotection against methacholine (MCh)-induced bronchoconstriction
# Assay type: in vivo
# Conditions: rat, 100 μg by inhalation, 24 h after administration
# Description: This assay measures the ability of a test compound to provide bronchoprotection against methacholine (MCh)-induced bronchoconstriction in a rat. Male Sprague-Dawley rats (Harlan, Indianapolis, Ind.), weighing between 200 g and 350 g, were used for all studies. Test compound or vehicle (sterile deionized water) were dosed by inhalation (IH) over a 10 min period in a pie shaped inhalation chamber (R+S Molds, San Carlos, Calif.) using 5 mL of dosing solution. […] Rats were dosed with 100 μg of test compound unless otherwise indicated. At predetermined time points, rats were anesthetized with an intraperitoneal (IP) injection of 120 mg/kg inactin (thiobutabarbital). A supplemental dose (40 mg/kg, IP) was administered if the animal responded to physical stimuli (e.g. toe pinch). The surgical site was shaved and a 1-2 cm midline incision of the ventral aspect of the neck was made. The jugular vein was isolated and cannulated with a saline-filled polyethylene catheter (PE-50) to allow IV infusion of MCh. Trachea was dissected free and cannulated with a 14G needle (#NE-014, Small Parts, Miami Lakes, Fla.). After placement of the tracheal cannula, each rat was ventilated using a respirator (Model 683, Harvard Apparatus, Inc., MA) set at a stroke volume of 1 mL/100 g body weight (but not exceeding 2.5 mL volume) and a rate of 90 strokes per minute. A T-connector was placed along the respirator expiratory tubing to allow for measurement of changes in ventilation pressure (VP) using a Biopac transducer that was connected to a Biopac […]) pre-amplifier. Body temperature was maintained at 37° C. using a heating pad. Changes in VP were recorded using the Acknowledge Data Collection Software (Santa Barbara, Calif.). Baseline values were collected for at least 2.5 min. Rats were then challenged with non-cumulative intravenous (IV) infusions of 40 and 80 μg/kg MCh. MCh was infused intravenously for 2.5 minutes from a syringe pump (sp210iw, World Precision Instruments, Inc., Sarasota, Fla.) at a rate of 2 mL/kg/min, with a 2 minute interval between the two doses of MCh. Changes in ventilation pressure (cm H2O) in treated animals are expressed as % inhibition of MCh response relative to control animals. Other bronchoconstrictors, such as histamine and acetylcholine, can be used in place of MCh in this assay. Additionally, guinea pigs can be used instead of rats. […] Inhibition greater than or equal to 30 percent at 24 h is indicative of a long duration of action.
row,SMILES,Broncho. at 24 h
1,"CN(CCCC(=O)Nc1cccc(CCNC[C@H](O)c2ccc(O)c3[nH]c(=O)ccc23)c1)C(=O)CCN1CCC(OC(=O)Nc2ccccc2-c2ccccc2)CC1 [Compound I-7, Biphenyl-2-ylcarbamic Acid 1-(2-{[3-(3-{2-[(R)-2-Hydroxy-2-(8-hydroxy-2-oxo-1,2-dihydroquinolin-5-yl)ethylamino]ethyl}phenylcarbamoyl)-propyl]methylcarbamoyl}ethyl)piperidin-4-yl Ester Ditrifluoroacetic Acid Salt]","Yes (Bronchoprotective effect present at 24 h, e.g., ≧30 % inhibition of the MCh response at 24 h in the rat Einthoven assay (100 μg))"
2,Cc1ccc(C(=O)Nc2ccc(CCNC[C@H](O)c3ccc(O)c4[nH]c(=O)ccc34)cc2)cc1N(C)C(=O)CCN1CCC(OC(=O)Nc2ccccc2-c2ccccc2)CC1 [Compound I-35],"Yes (Bronchoprotective effect present at 24 h, e.g., ≧30 % inhibition of the MCh response at 24 h in the rat Einthoven assay (100 μg))"
3,"CN(CCCCC(=O)Nc1ccc(CNC[C@H](O)c2ccc(O)c3[nH]c(=O)ccc23)cc1)C(=O)CCN1CCC(OC(=O)Nc2ccccc2-c2ccccc2)CC1 [Compound I-14, Biphenyl-2-ylcarbamic Acid 1-(2-{[4-(4-{[(R)-2-hydroxy-2-(8-hydroxy-2-oxo-1,2-dihydroquinolin-5-yl)ethylamino]methyl}phenylcarbamoyl)-butyl]methylcarbamoyl}ethyl)piperidin-4-yl Ester Ditrifluoroacetic Acid Salt]","Yes (Bronchoprotective effect present at 24 h, e.g., ≧30 % inhibition of the MCh response at 24 h in the rat Einthoven assay (100 μg))"
4,"CC(Cc1cccc(CCNC(=O)Cc2ccc(N(C)C(=O)CCN3CCC(OC(=O)Nc4ccccc4-c4ccccc4)CC3)cc2)c1)NC[C@H](O)c1ccc(O)c2[nH]c(=O)ccc12 (some centres unmarked) [Compound I-85, ditrifluoroacetic acid salt]","Yes (Bronchoprotective effect present at 24 h, e.g., ≧30 % inhibition of the MCh response at 24 h in the rat Einthoven assay (100 μg))"
5,"Cc1cc(NC(=O)CCCCN(C)C(=O)CCN2CCC(OC(=O)Nc3ccccc3-c3ccccc3)CC2)c(C)cc1CNC[C@H](O)c1ccc(O)c2[nH]c(=O)ccc12 [Compound I-18, Biphenyl-2-ylcarbamic Acid 1-(2-{[4-(4-{[(R)-2-Hydroxy-2-(8-hydroxy-2-oxo-1,2-dihydroquinolin-5-yl)ethylamino]methyl}-2,5-dimethylphenylcarbamoyl)butyl]methylcarbamoyl}ethyl)piperidin-4-yl Ester Ditrifluoroacetic Acid Salt]","Yes (Bronchoprotective effect present at 24 h, e.g., ≧30 % inhibition of the MCh response at 24 h in the rat Einthoven assay (100 μg))"
6,"CN(C(=O)CCN1CCC(OC(=O)Nc2ccccc2-c2ccccc2)CC1)c1cccc(C(=O)Nc2ccc(CCNC[C@H](O)c3ccc(O)c4[nH]c(=O)ccc34)cc2)c1 [Compound I-34, Ditrifluoroacetate]","Yes (Bronchoprotective effect present at 24 h, e.g., ≧30 % inhibition of the MCh response at 24 h in the rat Einthoven assay (100 μg))"
7,"C[C@@H](Cc1cccc(CC(=O)NCCCN(C)C(=O)CCN2CCC(OC(=O)Nc3ccccc3-c3ccccc3)CC2)c1)NC[C@H](O)c1ccc(O)c2[nH]c(=O)ccc12 [Compound I-13, Biphenyl-2-ylcarbamic Acid 1-[2-({3-[2-(3-{(S)-2-[(R)-2-Hydroxy-2-(8-hydroxy-2-oxo-1,2-dihydroquinolin-5-yl)ethylamino]propyl}phenyl)acetylamino]-propyl}methylcarbamoyl)ethyl]piperidin-4-yl Ester Ditrifluoroacetic Acid Salt]","Yes (Bronchoprotective effect present at 24 h, e.g., ≧30 % inhibition of the MCh response at 24 h in the rat Einthoven assay (100 μg))"

# Same assay, conditions: rat, 100 μg by inhalation, 24 h after administration; ditrifluoroacetic acid salt
row,SMILES,Broncho. at 24 h
1,"CC(Cc1ccc(CNC(=O)Cc2ccc(N(C)C(=O)CCN3CCC(OC(=O)Nc4ccccc4-c4ccccc4)CC3)cc2)cc1)NC[C@H](O)c1ccc(O)c2[nH]c(=O)ccc12 (stereo partly drawn) [Compound I-66, Biphenyl-2-ylcarbamic acid 1-[2-({4-[(4-{2-[(R)-2-hydroxy-2-(8-hydroxy-2-oxo-1,2-dihydroquinolin-5-yl)-ethylamino]propyl}benzylcarbamoyl)methyl]phenyl}-methylcarbamoyl)ethyl]piperidin-4-yl ester ditrifluoroacetic acid salt]",No
